Where “and” joins values, the source holds several entries; their conditions need not be identical. Identical values can stand only once.
How the values were obtained:
rat primary hepatocytes = assay: Metabolic disposition of [^14C]-Compound 1 and [^14C]-2′-C-methyl guanosine in rat primary hepatocytes (incubation medium, cellular extracts, nucleotide levels); format: in vitro ADME, Sprague Dawley rat
Method in brief: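 Radio-HPLC and liquid scintillation counting quantified metabolites in incubation medium and in 70% methanol cell extracts. Samples came from cultured rat, monkey or human primary hepatocytes exposed at 37° C to 1 or 10 μM [^14C]-compound or [^14C]-2′-C-methyl guanosine, sampled at 1–24 hours. Phosphates were confirmed by phosphatase digestion to the nucleoside.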

[1] = system: monkey primary hepatocytes; assay: Metabolic disposition of [^14C]-Compound 1 and [^14C]-2′-C-methyl guanosine in monkey primary hepatocytes (incubation medium, cellular extracts, nucleotide levels); format: in vitro ADME, Cynomolgus monkey
Method in brief: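 Rat, monkey or human primary hepatocytes on collagen I plates (1.6 million cells/mL) were incubated at 37° C with 1 or 10 μM C-8 [^14C]-labelled compound or 2′-C-methyl guanosine for 1, 4, 8 and 24 hours. Medium and 70% methanol cell extracts were analysed by LSC and radio-HPLC. Nucleotides were identified by alkaline phosphatase treatment and retention-time matching to standards.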

[2] = rat hepatocytes (Rs458), 1 μM [^14C]-Compound 1, 0 h
[3] = rat hepatocytes (Rs458), 1 μM [^14C]-Compound 1, 1 h
[4] = rat hepatocytes (Rs458), 1 μM [^14C]-Compound 1, 8 h
[5] = rat hepatocytes (Rs458), 1 μM [^14C]-Compound 1, 24 h
[6] = rat hepatocytes Rs448, 10 μM [^14C]-2′-C-methyl guanosine, 1 h
[7] = rat hepatocytes Rs448, 10 μM [^14C]-2′-C-methyl guanosine, 4 h
[8] = rat hepatocytes Rs448, 10 μM [^14C]-2′-C-methyl guanosine, 8 h
[9] = rat hepatocytes Rs448, 10 μM [^14C]-2′-C-methyl guanosine, 24 h
[10] = rat hepatocytes Rs458, 1 μM [^14C]-2′-C-methyl guanosine, 1 h
[11] = rat hepatocytes Rs458, 1 μM [^14C]-2′-C-methyl guanosine, 8 h
[12] = rat hepatocytes Rs458, 1 μM [^14C]-2′-C-methyl guanosine, 24 h
[13] = rat hepatocytes Rs458, 10 μM [^14C]-2′-C-methyl guanosine, 1 h
[14] = rat hepatocytes Rs458, 10 μM [^14C]-2′-C-methyl guanosine, 4 h
[15] = rat hepatocytes Rs458, 10 μM [^14C]-2′-C-methyl guanosine, 8 h
[16] = rat hepatocytes Rs458, 10 μM [^14C]-2′-C-methyl guanosine, 24 h
[17] = monkey hepatocytes (Cy234), 10 μM [^14C]-Compound 1, 4 h
[18] = monkey hepatocytes Cy230, 10 μM [^14C]-2′-C-methyl guanosine, 1 h
[19] = monkey hepatocytes Cy230, 10 μM [^14C]-2′-C-methyl guanosine, 8 h
[20] = monkey hepatocytes Cy230, 10 μM [^14C]-2′-C-methyl guanosine, 24 h
[21] = monkey hepatocytes Cy234, 10 μM [^14C]-2′-C-methyl guanosine, 1 h
[22] = monkey hepatocytes Cy234, 10 μM [^14C]-2′-C-methyl guanosine, 4 h
[23] = monkey hepatocytes Cy234, 10 μM [^14C]-2′-C-methyl guanosine, 8 h
[24] = monkey hepatocytes Cy234, 10 μM [^14C]-2′-C-methyl guanosine, 24 h

metabolites observed in cellular extracts (% of total radioactivity) (rat primary hepatocytes; rat hepatocytes (Rs448, Rs458), 10 μM [^14C]-Compound 1, 1 h, listed as Compd 5): 4.37% and 2.65%
metabolites observed in cellular extracts (% of total radioactivity) (rat primary hepatocytes; rat hepatocytes (Rs448, Rs458), 10 μM [^14C]-Compound 1, 4 h, listed as Compd 5): 4.02% and 4.53%
metabolites observed in cellular extracts (% of total radioactivity) (rat primary hepatocytes; rat hepatocytes (Rs448, Rs458), 10 μM [^14C]-Compound 1, 8 h, listed as Compd 5): 3.23% and 3.84%
metabolites observed in medium (% of total radioactivity) (rat primary hepatocytes; [2]): BLD
2′-C-methyl guanosine nucleotide levels in cellular extracts (rat primary hepatocytes; [3]): 6.00 pmol/million cells
metabolites observed in cellular extracts (% of total radioactivity) (rat primary hepatocytes; [3]): 3.74%
metabolites observed in medium (% of total radioactivity) (rat primary hepatocytes; [3]): BLD
2′-C-methyl guanosine nucleotide levels in cellular extracts (rat primary hepatocytes; [4]): 11.0 pmol/million cells
metabolites observed in cellular extracts (% of total radioactivity) (rat primary hepatocytes; [4]): 3.51%
metabolites observed in medium (% of total radioactivity) (rat primary hepatocytes; [4]): 6.41%
2′-C-methyl guanosine nucleotide levels in cellular extracts (rat primary hepatocytes; [5]): 11.0 pmol/million cells
metabolites observed in cellular extracts (% of total radioactivity) (rat primary hepatocytes; [5]): 6.68%
metabolites observed in medium (% of total radioactivity) (rat primary hepatocytes; [5]): no Compound 5 was detected and BLD
metabolites observed in medium (% of total radioactivity) (rat primary hepatocytes; rat hepatocytes (lots Rs448, Rs458), 10 μM [^14C]-Compound 1, 0 h): BLD
metabolites observed in medium (% of total radioactivity) (rat primary hepatocytes; rat hepatocytes (lots Rs448, Rs458), 10 μM [^14C]-Compound 1, 4 h): 5.3% and 3.6%
metabolites observed in medium (% of total radioactivity) (rat primary hepatocytes; rat hepatocytes (lots Rs448, Rs458), 10 μM [^14C]-Compound 1, 8 h): 6.1% and 3.3%
metabolites observed in medium (% of total radioactivity) (rat primary hepatocytes; rat hepatocytes (lots Rs448, Rs458), 10 μM [^14C]-Compound 1, 24 h): 2.9% and 2.6%
2′-C-methyl guanosine nucleotide levels in cellular extracts (rat primary hepatocytes; rat hepatocytes Rs448, 10 μM [^14C]-2′-C-methyl guanosine, 0 h): 0 pmol/million cells
2′-C-methyl guanosine nucleotide levels in cellular extracts (rat primary hepatocytes; [9]): 25.0 pmol/million cells
Major metabolites observed in cellular extracts (% of total radioactivity) (rat primary hepatocytes; [9]): 2.56 % of total radioactivity
2′-C-methyl guanosine nucleotide levels in cellular extracts (rat primary hepatocytes; rat hepatocytes Rs448, 10 μM [^14C]-Compound 1, 0 h): 0 pmol/million cells
2′-C-methyl guanosine nucleotide levels in cellular extracts (rat primary hepatocytes; rat hepatocytes Rs448, 10 μM [^14C]-Compound 1, 1 h): 43.0 pmol/million cells
2′-C-methyl guanosine nucleotide levels in cellular extracts (rat primary hepatocytes; rat hepatocytes Rs448, 10 μM [^14C]-Compound 1, 4 h): 81.0 pmol/million cells
2′-C-methyl guanosine nucleotide levels in cellular extracts (rat primary hepatocytes; rat hepatocytes Rs448, 10 μM [^14C]-Compound 1, 8 h): 79.0 pmol/million cells
2′-C-methyl guanosine nucleotide levels in cellular extracts (rat primary hepatocytes; rat hepatocytes Rs448, 10 μM [^14C]-Compound 1, 24 h): 39.0 pmol/million cells
2′-C-methyl guanosine nucleotide levels in cellular extracts (rat primary hepatocytes; [12]): 5.40 pmol/million cells
Major metabolites observed in cellular extracts (% of total radioactivity) (rat primary hepatocytes; [12]): 6.83 % of total radioactivity
2′-C-methyl guanosine nucleotide levels in cellular extracts (rat primary hepatocytes; rat hepatocytes Rs458, 10 μM [^14C]-2′-C-methyl guanosine, 0 h): 0 pmol/million cells
2′-C-methyl guanosine nucleotide levels in cellular extracts (rat primary hepatocytes; [16]): 88.0 pmol/million cells
Major metabolites observed in cellular extracts (% of total radioactivity) (rat primary hepatocytes; [16]): 9.39 % of total radioactivity
2′-C-methyl guanosine nucleotide levels in cellular extracts (rat primary hepatocytes; rat hepatocytes Rs458, 10 μM [^14C]-Compound 1, 0 h): 0 pmol/million cells
2′-C-methyl guanosine nucleotide levels in cellular extracts (rat primary hepatocytes; rat hepatocytes Rs458, 10 μM [^14C]-Compound 1, 1 h): 28.0 pmol/million cells
2′-C-methyl guanosine nucleotide levels in cellular extracts (rat primary hepatocytes; rat hepatocytes Rs458, 10 μM [^14C]-Compound 1, 4 h): 88.0 pmol/million cells
2′-C-methyl guanosine nucleotide levels in cellular extracts (rat primary hepatocytes; rat hepatocytes Rs458, 10 μM [^14C]-Compound 1, 8 h): 86.0 pmol/million cells
2′-C-methyl guanosine nucleotide levels in cellular extracts (rat primary hepatocytes; rat hepatocytes Rs458, 10 μM [^14C]-Compound 1, 24 h): 181 pmol/million cells
metabolites observed in cellular extracts (% of total radioactivity) ([1]; monkey hepatocytes (Cy230, Cy234), 10 μM [^14C]-Compound 1, 8 h): 3.84% and 5.38%
metabolites observed in cellular extracts (% of total radioactivity) ([1]; monkey hepatocytes (Cy230, Cy234), 10 μM [^14C]-Compound 1, 24 h): 6.96% and 3.34%
2′-C-methyl guanosine nucleotide levels in cellular extracts [1, 17]: 14.3 pmol/million cells
metabolites observed in cellular extracts (% of total radioactivity) [1, 17]: 5.47%
metabolites observed in medium (% of total radioactivity) ([1]; monkey hepatocytes (lot Cy234), 10 μM [^14C]-Compound 1, 4 h): 19.0%
metabolites observed in medium (% of total radioactivity) ([1]; monkey hepatocytes (lots Cy230, Cy234), 10 μM [^14C]-Compound 1, 0 h): BLD
metabolites observed in medium (% of total radioactivity) ([1]; monkey hepatocytes (lots Cy230, Cy234), 10 μM [^14C]-Compound 1, 24 h): 8% and 8.4% and 7.5%
2′-C-methyl guanosine nucleotide levels in cellular extracts ([1]; monkey hepatocytes Cy230, 10 μM [^14C]-2′-C-methyl guanosine, 0 h): 0 pmol/million cells
2′-C-methyl guanosine nucleotide levels in cellular extracts ([1]; monkey hepatocytes Cy230, 10 μM [^14C]-Compound 1, 0 h): 0 pmol/million cells
2′-C-methyl guanosine nucleotide levels in cellular extracts ([1]; monkey hepatocytes Cy230, 10 μM [^14C]-Compound 1, 1 h): 23.9 pmol/million cells
2′-C-methyl guanosine nucleotide levels in cellular extracts ([1]; monkey hepatocytes Cy230, 10 μM [^14C]-Compound 1, 8 h): 42.5 pmol/million cells
2′-C-methyl guanosine nucleotide levels in cellular extracts ([1]; monkey hepatocytes Cy230, 10 μM [^14C]-Compound 1, 24 h): 33.2 pmol/million cells
2′-C-methyl guanosine nucleotide levels in cellular extracts ([1]; monkey hepatocytes Cy234, 10 μM [^14C]-2′-C-methyl guanosine, 0 h): 0 pmol/million cells
2′-C-methyl guanosine nucleotide levels in cellular extracts [1, 21]: 0.95 pmol/million cells
Major metabolites observed in cellular extracts (% of total radioactivity) [1, 21]: 2.19 % of total radioactivity
2′-C-methyl guanosine nucleotide levels in cellular extracts [1, 23]: 3.00 pmol/million cells
Major metabolites observed in cellular extracts (% of total radioactivity) [1, 23]: 3.32 % of total radioactivity
2′-C-methyl guanosine nucleotide levels in cellular extracts [1, 24]: 5.50 pmol/million cells
Major metabolites observed in cellular extracts (% of total radioactivity) [1, 24]: 5.03 % of total radioactivity
2′-C-methyl guanosine nucleotide levels in cellular extracts ([1]; monkey hepatocytes Cy234, 10 μM [^14C]-Compound 1, 0 h): 0 pmol/million cells
2′-C-methyl guanosine nucleotide levels in cellular extracts ([1]; monkey hepatocytes Cy234, 10 μM [^14C]-Compound 1, 1 h): 11.7 pmol/million cells
2′-C-methyl guanosine nucleotide levels in cellular extracts ([1]; monkey hepatocytes Cy234, 10 μM [^14C]-Compound 1, 8 h): 33.0 pmol/million cells
2′-C-methyl guanosine nucleotide levels in cellular extracts ([1]; monkey hepatocytes Cy234, 10 μM [^14C]-Compound 1, 24 h): 23.2 pmol/million cells
Structure (SMILES): C[C@@]1(O)[C@H](O)[C@@H](COP(=O)(O)O)O[C@H]1n1cnc2c(=O)[nH]c(N)nc21 [Compound 5, [(2R)-2-methyl-β-D-ribofuranosyl]guanine 5′-monophosphate]
2′-C-methyl guanosine nucleotide levels in cellular extracts (rat primary hepatocytes; [2]): BLD (BLD = below limit of detection (0.02 pmol/million cells))
2′-C-methyl guanosine nucleotide levels in cellular extracts (rat primary hepatocytes; [6]): BLD^a (BLD = below limit of detection (0.02 pmol/million cells))
Major metabolites observed in cellular extracts (% of total radioactivity) (rat primary hepatocytes; [6]): BLD^a (BLD = below limit of detection (30 DPM))
2′-C-methyl guanosine nucleotide levels in cellular extracts (rat primary hepatocytes; [7]): BLD (BLD = below limit of detection (0.02 pmol/million cells))
Major metabolites observed in cellular extracts (% of total radioactivity) (rat primary hepatocytes; [7]): BLD (BLD = below limit of detection (30 DPM))
2′-C-methyl guanosine nucleotide levels in cellular extracts (rat primary hepatocytes; [8]): BLD (BLD = below limit of detection (0.02 pmol/million cells))
Major metabolites observed in cellular extracts (% of total radioactivity) (rat primary hepatocytes; [8]): BLD (BLD = below limit of detection (30 DPM))
2′-C-methyl guanosine nucleotide levels in cellular extracts (rat primary hepatocytes; rat hepatocytes Rs458, 1 μM [^14C]-2′-C-methyl guanosine, 0 h): BLD (BLD = below limit of detection (0.02 pmol/million cells))
2′-C-methyl guanosine nucleotide levels in cellular extracts (rat primary hepatocytes; [10]): BLD (BLD = below limit of detection (0.02 pmol/million cells))
Major metabolites observed in cellular extracts (% of total radioactivity) (rat primary hepatocytes; [10]): BLD^a (BLD = below limit of detection (30 DPM))
2′-C-methyl guanosine nucleotide levels in cellular extracts (rat primary hepatocytes; [11]): BLD (BLD = below limit of detection (0.02 pmol/million cells))
Major metabolites observed in cellular extracts (% of total radioactivity) (rat primary hepatocytes; [11]): BLD (BLD = below limit of detection (30 DPM))
2′-C-methyl guanosine nucleotide levels in cellular extracts (rat primary hepatocytes; [13]): BLD (BLD = below limit of detection (0.02 pmol/million cells))
Major metabolites observed in cellular extracts (% of total radioactivity) (rat primary hepatocytes; [13]): BLD^a (BLD = below limit of detection (30 DPM))
2′-C-methyl guanosine nucleotide levels in cellular extracts (rat primary hepatocytes; [14]): BLD (BLD = below limit of detection (0.02 pmol/million cells))
Major metabolites observed in cellular extracts (% of total radioactivity) (rat primary hepatocytes; [14]): BLD (BLD = below limit of detection (30 DPM))
2′-C-methyl guanosine nucleotide levels in cellular extracts (rat primary hepatocytes; [15]): BLD (BLD = below limit of detection (0.02 pmol/million cells))
Major metabolites observed in cellular extracts (% of total radioactivity) (rat primary hepatocytes; [15]): BLD (BLD = below limit of detection (30 DPM))
2′-C-methyl guanosine nucleotide levels in cellular extracts [1, 18]: BLD^b (BLD = below limit of detection (0.02 pmol/million cells))
Major metabolites observed in cellular extracts (% of total radioactivity) [1, 18]: BLD^b (BLD = below limit of detection (30 DPM))
2′-C-methyl guanosine nucleotide levels in cellular extracts [1, 19]: BLD (BLD = below limit of detection (0.02 pmol/million cells))
Major metabolites observed in cellular extracts (% of total radioactivity) [1, 19]: BLD (BLD = below limit of detection (30 DPM))
2′-C-methyl guanosine nucleotide levels in cellular extracts [1, 20]: BLD (BLD = below limit of detection (0.02 pmol/million cells))
Major metabolites observed in cellular extracts (% of total radioactivity) [1, 20]: BLD (BLD = below limit of detection (30 DPM))
2′-C-methyl guanosine nucleotide levels in cellular extracts [1, 22]: BLD (BLD = below limit of detection (0.02 pmol/million cells))
Major metabolites observed in cellular extracts (% of total radioactivity) [1, 22]: BLD (BLD = below limit of detection (30 DPM))

Source: patent US20100003217A1, “Compounds and Pharmaceutical Compositions for the Treatment of Viral Infections” (priority 2008, published 2010)
